Drawing on PubChem BioAssay (NCI), this text covers TGI and GI50 for 12 compounds.

Some test systems named below: NCI-H226 lung; MALME-3M melanoma; OVCAR-5 ovarian; DMS 273 small cell lung; KM20L2 colon; HOP-92 NSCLC; IGROV1 ovarian; RXF 393 renal; NCI-H460 lung; MDA-MB-231 breast.
Holding throughout (assay): NCI tumour cell line growth inhibition, 48 h

Structures are written as SMILES.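 96-well plates; 48 h exposure; 5 concentrations. Endpoints by linear interpolation between flanking doses. Not reached: highest tested concentration assigned. Abbreviation: GI50, concentration required for 50% inhibition of growth. TGI is the concentration that stops growth completely.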 Some results are limits rather than exact numbers.

As for `Cc1nc2c(o1)C(=Nc1ccccc1)c1nc(C)oc1C2=Nc1ccccc1`, the TGI was 53.6 µM with NCI-H226 lung; 41.6 µM with MALME-3M melanoma; 92.4 µM in the assay on OVCAR-5 ovarian; 50.5 µM with DMS 273 small cell lung; 70 µM with KM20L2 colon; 44.1 µM in the assay with HOP-92 NSCLC. Moreover, the TGI in the assay on IGROV1 ovarian was 52.1 µM; in the assay with RXF 393 renal it was 37.5 µM; in the assay with NCI-H460 lung, over 100 µM.
In the case of `COC1OC2COC(C)(C)OC2C(OC(C)=O)C1NC(=O)N(CCCl)N=O` (stereo unspecified), the TGI with NCI-H226 lung, with MALME-3M melanoma, in the assay on OVCAR-5 ovarian, with DMS 273 small cell lung, with KM20L2 colon and with IGROV1 ovarian was over 100 µM in each case. Besides, the TGI in the assay with RXF 393 renal and in the assay on NCI-H460 lung was over 100 µM each time.
Regarding `O=C(CCN1CCCCC1)N1CCc2c([nH]c3ccccc23)C1c1cccnc1` (stereo unspecified), the TGI was over 100 µM in the assay on NCI-H226 lung; 41.6 µM with MALME-3M melanoma; over 92.9 µM in the assay with OVCAR-5 ovarian; over 100 µM in the assay on DMS 273 small cell lung; over 70.8 µM with KM20L2 colon; 66 µM with HOP-92 NSCLC. Besides, the TGI with IGROV1 ovarian was over 100 µM; in the assay with RXF 393 renal, 81.5 µM; in the assay on MDA-MB-231 breast, over 74.2 µM; with NCI-H460 lung, over 100 µM.
Regarding `Nc1ccccc1C(=O)CCC1C(=O)NC(=S)NC1=O`, the TGI with NCI-H226 lung, in the assay on MALME-3M melanoma, with OVCAR-5 ovarian, in the assay with DMS 273 small cell lung, in the assay with KM20L2 colon and in the assay with HOP-92 NSCLC was over 100 µM each time. The TGI in the assay with IGROV1 ovarian, in the assay with RXF 393 renal and in the assay on NCI-H460 lung was over 100 µM each time.
As for `COc1ccc(S(=O)(=O)N(CC(=O)O)c2ccccc2)cc1`, the TGI in the assay on MALME-3M melanoma, in the assay on OVCAR-5 ovarian, in the assay with DMS 273 small cell lung, with KM20L2 colon, with HOP-92 NSCLC and in the assay on IGROV1 ovarian was over 100 µM in each case. In addition, the TGI with RXF 393 renal and with NCI-H460 lung was over 100 µM each time.
Turning to `C/C=C1\CN2CCc3c([nH]c4ccccc34)C2CC1CCO` (stereo unspecified), the TGI with NCI-H226 lung, in the assay with MALME-3M melanoma, in the assay with OVCAR-5 ovarian, in the assay on DMS 273 small cell lung, in the assay with KM20L2 colon and with HOP-92 NSCLC was over 100 µM in each case. For the same compound, the TGI with IGROV1 ovarian, in the assay with RXF 393 renal and in the assay on NCI-H460 lung was over 100 µM each time.
In the case of `N#CC(C(=O)/C(=N\NC(N)=O)C(C#N)c1ccccc1)c1ccccc1` (stereo unspecified), the TGI in the assay on NCI-H226 lung, with MALME-3M melanoma, in the assay on OVCAR-5 ovarian, in the assay with DMS 273 small cell lung, with KM20L2 colon and in the assay on HOP-92 NSCLC was over 100 µM each time. In addition, the TGI in the assay on IGROV1 ovarian, in the assay on RXF 393 renal and with NCI-H460 lung was over 100 µM each time.
`COc1c(-c2ccccc2)nc2ccc(Oc3ccccc3)nn12`: the TGI is 98.1 µM with NCI-H226 lung; over 92.6 µM with MALME-3M melanoma; over 100 µM in the assay on OVCAR-5 ovarian; over 100 µM in the assay with DMS 273 small cell lung; over 100 µM in the assay on KM20L2 colon; over 100 µM with HOP-92 NSCLC. Further, the results for the TGI with IGROV1 ovarian, in the assay with RXF 393 renal and in the assay with NCI-H460 lung were over 100 µM, over 73.6 µM and over 100 µM, respectively.
With `O=C1C2C3CC(C4C5C=CC(C5)C34)C2C2C3CC(C12)C1C2C=CC(C2)C31` (stereo unspecified), the TGI in the assay on NCI-H226 lung, in the assay on MALME-3M melanoma, with OVCAR-5 ovarian, in the assay with DMS 273 small cell lung, in the assay with KM20L2 colon and in the assay on HOP-92 NSCLC was over 100 µM in each case. The TGI in the assay with IGROV1 ovarian, in the assay on RXF 393 renal and in the assay on NCI-H460 lung was over 100 µM throughout.
On to `CN(/N=C/c1ccnc2ccccc12)c1c([N+](=O)[O-])cc([N+](=O)[O-])cc1[N+](=O)[O-]`, for which the TGI in the assay on NCI-H226 lung was over 100 µM; with MALME-3M melanoma, 99.1 µM; with OVCAR-5 ovarian it was over 100 µM; in the assay on DMS 273 small cell lung, over 100 µM; in the assay with KM20L2 colon it was over 100 µM; in the assay with HOP-92 NSCLC, over 100 µM. The TGI with IGROV1 ovarian, in the assay on RXF 393 renal and with NCI-H460 lung was over 100 µM in each case.
As for `CCOc1ccccc1N=Nc1c(-c2ccccc2)nn(C(=O)CC(=O)Nc2cccc(C)c2)c1-c1ccccc1`, the TGI in the assay on NCI-H226 lung, in the assay with MALME-3M melanoma, in the assay with OVCAR-5 ovarian, in the assay on DMS 273 small cell lung, in the assay on KM20L2 colon and with HOP-92 NSCLC was over 100 µM throughout. Moreover, the TGI with IGROV1 ovarian, in the assay with RXF 393 renal and in the assay with NCI-H460 lung was over 100 µM in each case.
With `N/N=C(/Cc1nc2ccc(C(=O)c3ccccc3)cc2[nH]c1=O)C(=O)Nc1ccc([N+](=O)[O-])cc1[N+](=O)[O-]`, the GI50 in the assay on NCI-H226 lung, with OVCAR-5 ovarian, in the assay on DMS 273 small cell lung, in the assay on IGROV1 ovarian and with NCI-H460 lung was over 100 µM throughout. Moreover, the TGI in the assay with NCI-H226 lung, with MALME-3M melanoma, in the assay on OVCAR-5 ovarian, in the assay with DMS 273 small cell lung, with KM20L2 colon and with IGROV1 ovarian was over 100 µM each time. Moreover, the TGI in the assay with RXF 393 renal and in the assay with NCI-H460 lung was over 100 µM in each case.
